Here are results for 11 compounds from PubChem BioAssay AID1259407 (Chemical Carcinogenesis Research Information System (CCRIS), 2018).

The structures appear in SMILES notation. Calls of active or inactive are those of the source. The rule behind the calls is not given here.

This series concerns CCRIS mutagenicity, Ames/micronucleus/aberration tests. The experiment in a line: CCRIS mutagenicity studies.
Setting [1] is: Test System: AMES SALMONELLA TYPHIMURIUM, Strain/Indicator: TA98, Metabolic Activation: NONE, Method: PREINCUBATION
Setting [2] is: Test System: AMES SALMONELLA TYPHIMURIUM, Strain/Indicator: TA98, Metabolic Activation: NONE, Method: STANDARD PLATE.
The mark [3] stands for this setting: Test System: AMES SALMONELLA TYPHIMURIUM, Strain/Indicator: TA98, Metabolic Activation: RAT, LIVER, S-9, AROCLOR 1254, Method: STANDARD PLATE.
The mark [4] stands for this setting: Test System: AMES SALMONELLA TYPHIMURIUM, Strain/Indicator: TA100, Metabolic Activation: NONE, Method: STANDARD PLATE.
The mark [5] stands for this setting: Test System: AMES SALMONELLA TYPHIMURIUM, Strain/Indicator: TA100, Metabolic Activation: RAT, LIVER, S-9, AROCLOR 1254, Method: STANDARD PLATE.
[6] abbreviates: Test System: AMES SALMONELLA TYPHIMURIUM, Strain/Indicator: TA1535, Metabolic Activation: NONE, Method: STANDARD PLATE.
The mark [7] stands for this setting: Test System: AMES SALMONELLA TYPHIMURIUM, Strain/Indicator: TA1535, Metabolic Activation: RAT, LIVER, S-9, AROCLOR 1254, Method: STANDARD PLATE.
Setting [8] is: Test System: AMES SALMONELLA TYPHIMURIUM, Strain/Indicator: TA1537, Metabolic Activation: NONE, Method: STANDARD PLATE.
Setting [9] is: Test System: AMES SALMONELLA TYPHIMURIUM, Strain/Indicator: TA1537, Metabolic Activation: RAT, LIVER, S-9, AROCLOR 1254, Method: STANDARD PLATE.
The mark [10] stands for this setting: Test System: AMES SALMONELLA TYPHIMURIUM, Strain/Indicator: TA1538, Metabolic Activation: NONE, Method: STANDARD PLATE.
The mark [11] stands for this setting: Test System: AMES SALMONELLA TYPHIMURIUM, Strain/Indicator: TA1538, Metabolic Activation: RAT, LIVER, S-9, AROCLOR 1254, Method: STANDARD PLATE.
Where [12] appears, read: Test System: AMES SALMONELLA TYPHIMURIUM, Strain/Indicator: TA100, Metabolic Activation: NONE, Method: PREINCUBATION
Setting [13] is: Test System: AMES SALMONELLA TYPHIMURIUM, Strain/Indicator: TA1535, Metabolic Activation: NONE, Method: PREINCUBATION
The mark [14] stands for this setting: Test System: AMES SALMONELLA TYPHIMURIUM, Strain/Indicator: TA1537, Metabolic Activation: NONE, Method: PREINCUBATION

`CCc1cccc(CC)c1N=O`: the mutagenic call was “active; positive” under setting [1]; “active; positive” (Test System: AMES SALMONELLA TYPHIMURIUM, Strain/Indicator: TA98, Metabolic Activation: RAT, LIVER, MICROSOMES, PHENOBARBITAL, Method: PREINCUBATION); “active; positive” (Test System: AMES SALMONELLA TYPHIMURIUM, Strain/Indicator: TA100, Metabolic Activation: RAT, LIVER, MICROSOMES, PHENOBARBITAL, Method: PREINCUBATION).

Turning to `ClC(Cl)=Cc1c(Cl)c(Cl)c(Cl)c(Cl)c1Cl`, the mutagenic call is, setting by setting: under setting [2], “inactive; negative”; under setting [3], “inactive; negative”; under setting [4], “inactive; negative”; under setting [5], “inactive; negative”.

As for `C[C@]12C=CC3=C4CCC(=O)C=C4CC[C@H]3[C@@H]1CC[C@H]2O`, the mutagenic call under setting [2] was “inactive; negative”; the mutagenic call under setting [3] was “inactive; negative”; the mutagenic call under setting [4] is “inactive; negative”; the mutagenic call under setting [5] was “inactive; negative”; the mutagenic call under setting [6] is “inactive; negative”; the mutagenic call under setting [7] is “inactive; negative”. Moreover, the mutagenic call runs as follows: under setting [8], “inactive; negative”; under setting [9], “inactive; negative”; under setting [10], “inactive; negative”; under setting [11], “inactive; negative”; (Test System: CHO/HGPRT, Strain/Indicator: CHO-K1-BH4, Metabolic Activation: NONE, Method: STANDARD PLATE) “inactive; negative”; (Test System: CHO/HGPRT, Strain/Indicator: CHO-K1-BH4, Metabolic Activation: RAT, LIVER, S-9, AROCLOR 1254, Method: STANDARD PLATE) “inactive; negative”.

Regarding `CN(C(=O)c1csc([N+](=O)[O-])c1)c1ccccc1`, the mutagenic call was “active; positive” under setting [2] and “active; positive” under setting [4].

As for `O=c1cn[nH]c(=O)[nH]1`, the mutagenic call was “inactive; negative” (Test System: AMES SALMONELLA TYPHIMURIUM, Strain/Indicator: TA98, Metabolic Activation: MAIZE SEEDLING, S-14, Method: PREINCUBATION); “inactive; negative” (Test System: AMES SALMONELLA TYPHIMURIUM, Strain/Indicator: TA98, Metabolic Activation: MOUSE, LIVER, S-9, Method: PREINCUBATION); “inactive; negative” under setting [1]; “inactive; negative” under setting [2]; “active; positive” under setting [3]; “inactive; negative” (Test System: AMES SALMONELLA TYPHIMURIUM, Strain/Indicator: TA100, Metabolic Activation: MAIZE SEEDLING, S-14, Method: PREINCUBATION). Moreover, the mutagenic call reads like this: (Test System: AMES SALMONELLA TYPHIMURIUM, Strain/Indicator: TA100, Metabolic Activation: MOUSE, LIVER, S-9, Method: PREINCUBATION) “inactive; negative”; under setting [12], “inactive; negative”; under setting [4], “inactive; negative”; under setting [5], “inactive; negative”; under setting [13], “inactive; negative”; under setting [6], “inactive; negative”. The mutagenic call is “inactive; negative” under setting [7]; “inactive; negative” under setting [14]; “inactive; negative” under setting [8]; “inactive; negative” under setting [9]; “inactive; negative” (Test System: AMES SALMONELLA TYPHIMURIUM, Strain/Indicator: TA1538, Metabolic Activation: NONE, Method: PREINCUBATION); “inactive; negative” under setting [10]. Moreover, the mutagenic call under setting [11] is “active; positive”.

For the compound `Cc1ccc2cc3c4c(ccc3c3c2c1C[C@H]3O)[C@@H](O)[C@H](O)C=C4`, the mutagenic call (Test System: CHINESE HAMSTER V-79, Strain/Indicator: V-79/8-AZAGUANINE, Metabolic Activation: RAT, LIVER, S-9, AROCLOR, Method: STANDARD PLATE) was “active; positive”.

Take `CCOP(=O)(OCC)SCCSCC` (tested in a mixture with another compound): the mutagenic call is, setting by setting: (Test System: E. COLI, Strain/Indicator: WP2 UVRA, Metabolic Activation: NONE, Method: STANDARD PLATE) “active; positive”; (Test System: E. COLI, Strain/Indicator: WP2 UVRA, Metabolic Activation: RAT, LIVER, S-9, AROCLOR 1254, Method: STANDARD PLATE) “active; positive”; (Test System: UDS HUMAN FIBROBLASTS, Strain/Indicator: THY INCORP (NON-S-PHASE), Metabolic Activation: NONE, Method: LIQUID SCINTILLATION COUNTING) “active; positive”.

As to `O=C(Oc1ccccc1)c1ccccc1O`, the mutagenic call by setting is: (Test System: AMES SALMONELLA TYPHIMURIUM, Strain/Indicator: TA98, Metabolic Activation: HAMSTER, LIVER, S-9, AROCLOR 1254 (10%), Method: PREINCUBATION) “inactive; negative”; under setting [1], “inactive; negative”; (Test System: AMES SALMONELLA TYPHIMURIUM, Strain/Indicator: TA98, Metabolic Activation: RAT, LIVER, S-9, AROCLOR 1254 (10%), Method: PREINCUBATION) “inactive; negative”; (Test System: AMES SALMONELLA TYPHIMURIUM, Strain/Indicator: TA100, Metabolic Activation: HAMSTER, LIVER, S-9, AROCLOR 1254 (10%), Method: PREINCUBATION) “inactive; negative”; under setting [12], “inactive; negative”; (Test System: AMES SALMONELLA TYPHIMURIUM, Strain/Indicator: TA100, Metabolic Activation: RAT, LIVER, S-9, AROCLOR 1254 (10%), Method: PREINCUBATION) “inactive; negative”. The mutagenic call was “inactive; negative” (Test System: AMES SALMONELLA TYPHIMURIUM, Strain/Indicator: TA1535, Metabolic Activation: HAMSTER, LIVER, S-9, AROCLOR 1254 (10%), Method: PREINCUBATION); “inactive; negative” under setting [13]; “inactive; negative” (Test System: AMES SALMONELLA TYPHIMURIUM, Strain/Indicator: TA1535, Metabolic Activation: RAT, LIVER, S-9, AROCLOR 1254 (10%), Method: PREINCUBATION); “inactive; negative” (Test System: AMES SALMONELLA TYPHIMURIUM, Strain/Indicator: TA1537, Metabolic Activation: HAMSTER, LIVER, S-9, AROCLOR 1254 (10%), Method: PREINCUBATION); “inactive; negative” under setting [14]; “inactive; negative” (Test System: AMES SALMONELLA TYPHIMURIUM, Strain/Indicator: TA1537, Metabolic Activation: RAT, LIVER, S-9, AROCLOR 1254 (10%), Method: PREINCUBATION).

`CN(C)CC/C=C1\c2ccccc2COc2ccccc21`: the mutagenic call under setting [2] was “inactive; negative”; the mutagenic call under setting [3] is “inactive; negative”; the mutagenic call under setting [4] was “inactive; negative”; the mutagenic call under setting [5] was “inactive; negative”; the mutagenic call under setting [6] was “inactive; negative”; the mutagenic call under setting [7] was “inactive; negative”. Further, the mutagenic call is, setting by setting: under setting [8], “inactive; negative”; under setting [9], “inactive; negative”.

With `CC(C)CCC[C@@H](C)[C@H]1CC[C@H]2[C@@H]3C=CC4(OO)C[C@@H](O)CC[C@]4(C)[C@H]3CC[C@]12C` (stereo partly drawn), under setting [14], the mutagenic call is “active; positive”.

Regarding `CC(=O)O[C@H]1[C@@H]2CC(C)(C)CC2=C(C=O)[C@]2(C=O)C[C@]12C`, the mutagenic call runs as follows: under setting [2], “inactive; negative”; under setting [4], “inactive; negative”; (Test System: AMES SALMONELLA TYPHIMURIUM, Strain/Indicator: TA2637, Metabolic Activation: NONE, Method: STANDARD PLATE) “inactive; negative”.
